Results: US6958340B2, “Tyrosine kinase inhibitors” (Merck & Co., Inc., priority 2001, dated 2005)

melting point: 183 °C
SMILES: Cc1cc(C)cc(Nc2nccc(-n3ccnc3-c3ccccc3)n2)c1 [Compound 1-24, N-(3,5-dimethylphenyl)-4-(2-phenyl-1H-imidazol-1-yl)pyrimidin-2-amine]
